{"source": "patent US9441016B2", "about": "“Complete genome sequence of the methanogen Methanobrevibacter ruminantium” (Pastoral Greenhouse Gas Research Ltd., priority 2009, dated 2016)", "key": {"[1]": {"biological_target": "3-hydroxy-3-methylglutaryl-CoA reductase (HMGR) (Methanobrevibacter ruminantium, UniProt D3E332)", "sequence (D3E332 entry or part of it)": "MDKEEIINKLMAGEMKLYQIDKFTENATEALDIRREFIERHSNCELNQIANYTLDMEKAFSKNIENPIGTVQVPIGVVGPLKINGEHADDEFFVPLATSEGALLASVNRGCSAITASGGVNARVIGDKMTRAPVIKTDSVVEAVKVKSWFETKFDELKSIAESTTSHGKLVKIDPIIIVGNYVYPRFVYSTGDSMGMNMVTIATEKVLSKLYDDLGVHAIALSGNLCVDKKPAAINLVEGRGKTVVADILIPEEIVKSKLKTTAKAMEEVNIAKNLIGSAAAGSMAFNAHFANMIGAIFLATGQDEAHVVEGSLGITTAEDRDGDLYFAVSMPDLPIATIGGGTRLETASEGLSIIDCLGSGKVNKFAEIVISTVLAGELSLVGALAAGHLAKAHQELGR", "experiment": "HMGR activity assay measuring oxidation of NADPH", "type": "biochemical", "conditions": "for Km: substrate of HMGR, assays at 37° C, pH 6.5"}, "M. ruminantium M1 [2]": {"tested_on": "M. ruminantium M1", "experiment": "Effect of the lytic enzyme PeiR on M1 growth in vitro (culture density, methane)", "type": "cell-based, Methanobrevibacter ruminantium", "description": "M1 was grown in medium RM02 in anaerobic culture tubes (16 mm internal diameter, 18 mm outer diameter, 150 mm long; Bellco Glass, Vineland, N.J., USA), essentially as described by Balch and Wolfe, 1976. The mineral salts base of RM02 contained (per liter of medium): 1.4 g of KH2PO4, 0.6 g of (NH4)2SO4, 1.5 g of KCl, 1 ml trace element solution […] et al., 1983), 1 ml of selenite/tungstate solution ([…] and […], 1984) and 4 drops of 0.1% (w/v) resazurin solution. This solution was mixed and then boiled under O2-free 100% CO2, before being cooled in an ice bath while it was bubbled with 100% CO2. Once the medium was cool, 4.2 g of NaHCO3 and 0.5 g of L-cysteine.HCl.H2O was added per liter. […] In the experiments testing the effects of PeiR addition, the culture densities were mathematically normalised to an OD600 of 0.1 at the time the additions were made, and all other readings corrected by the same ratio. […] Methane was measured by gas chromatography, taking a 0.3 ml sample from the culture headspace, at the pressure in the culture tube, and injecting it into an Aerograph 660 (Varian Associates, Palo Alto, Calif., USA) fitted with a Porapak Q 80/100 mesh column (Waters Corporation, Milford, Mass., USA) and a thermal conductivity detector operated at 100° C. […]"}, "[3]": {"tested_on": "Mbb. ruminantium A1Ao ATP synthase", "experiment": "ATP hydrolysis by A1Ao ATP synthase with inhibitors (inorganic phosphate assay)", "type": "biochemical, Methanobrevibacter ruminantium", "conditions": "in high concentrations", "text": "Two enzyme preparations were studied. Purified ATP synthase from BL21 and recombinant enzyme expressed in E. coli DK8 membranes. Purified […] ATP synthase was examined for ATPase activity using the inorganic phosphate assay. […] TBT is a well characterized Fo and Ao channel inhibitor of ATP synthases. To examine the coupling ion used by the Mbb. ruminantium […] ATP synthase, the effect of amiloride, a known Na^+-coupled V-type ATPase and Na^+ channel inhibitor was also examined. […] E. coli DK8 (Δatp) inverted membranes containing the recombinant […]-ATPase were used to determine the effects of the inhibitors TBT (200 μM) and DCCD (250 μM) at different pH values. ATPase activity was measured in presence of 130 mM Na^+ (FIG. 30A) and in absence of Na^+ (FIG. 30B). After preincubation with the inhibitor for 20 min at room temperature ([…]), the reaction was started at 39° C. by addition of Na2-ATP or Tris-ATP to a final concentration of 2.5 mM. 0.5 mg inverted membrane vesicles was used in each end-point assay. […] FIGS. 30A and 30B). […] FIG. 30C). Amiloride inhibition of ATP hydrolysis of the Mbb. ruminantium […] ATP synthase was evaluated next. […] FIG. 30D). […] FIG. 31A). Amiloride inhibition of ATP hydrolysis of purified recombinant Mbb. ruminantium […] ATP synthase was further tested in DK8 and native membranes. […] FIG. 31B)."}, "M. ruminantium M1 [4]": {"tested_on": "M. ruminantium M1", "experiment": "Stimulation of growth of M1 by alcohols", "type": "cell-based, Methanobrevibacter ruminantium", "conditions": "for culture density (OD600 nm): M1 grown on H2, compared to H2 alone", "description": "M1 was grown in medium RM02 in anaerobic culture tubes (16 mm internal diameter, 18 mm outer diameter, 150 mm long; Bellco Glass, Vineland, N.J., USA), essentially as described by Balch and Wolfe, 1976. The mineral salts base of RM02 contained (per liter of medium): 1.4 g of KH2PO4, 0.6 g of (NH4)2SO4, 1.5 g of KCl, 1 ml trace element solution […] et al., 1983), 1 ml of selenite/tungstate solution ([…] and […], 1984) and 4 drops of 0.1% (w/v) resazurin solution. This solution was mixed and then boiled under O2-free 100% CO2, before being cooled in an ice bath while it was bubbled with 100% CO2. Once the medium was cool, 4.2 g of NaHCO3 and 0.5 g of L-cysteine.HCl.H2O was added per liter. The medium was dispensed into the culture tubes while being gassed with 100% CO2, at 9.5 ml of medium per tube, and the tubes sealed with blue butyl septum stoppers and aluminium seals (Bellco), with a headspace of 100% CO2. These tubes were sterilised by autoclaving for 20 min at 121° C. Before use, the tubes were stored in the dark for at least 24 h. Sodium acetate (20 mM final conc.), sodium formate (60 mM final conc.), coenzyme M (10 μM final conc.), and vitamin-supplemented clarified rumen fluid were added to sterile media, before inoculation with 0.5 ml of an actively growing culture of M. ruminantium, then gassed with H2 plus CO2 (4:1) to 180 kPa overpressure. In some experiments, the formate was omitted, and alcohols were added, as noted in the experimental descriptions accompanying the results. The culture tubes were incubated on their sides, at 39° C. in the dark, on a platform shaken at 200 rpm. Growth of M1 was followed by measuring the culture density at 600 nm by inserting the tubes directly into an Ultrospec 1100 pro UV/Vis spectrophotometer (Amersham Biosciences, Little Chalfont, Buckinghamshire, UK). […] In the experiments testing the effects of PeiR addition, the culture densities were mathematically normalised to an OD600 of 0.1 at the time the additions were made, and all other readings corrected by the same ratio. This was done to remove the effect of lack of absolute synchronicity between cultures, a common phenomenon when culturing methanogens. This normalisation was not done for experiments testing the utilisation of alcohols. Methane was measured by gas chromatography, taking a 0.3 ml sample from the culture headspace, at the pressure in the culture tube, and injecting it into an Aerograph 660 (Varian Associates, Palo Alto, Calif., USA) fitted with a Porapak Q 80/100 mesh column (Waters Corporation, Milford, Mass., USA) and a thermal conductivity detector operated at 100° C. The column was operated at room temperature with N2 as the carrier gas at 12 cm^3/min."}}}
{"smiles": "NC(=O)C1=CN([C@@H]2O[C@H](COP(=O)(O)OP(=O)(O)OC[C@H]3O[C@@H](n4cnc5c(N)ncnc54)[C@H](OP(=O)(O)O)[C@@H]3O)[C@@H](O)[C@H]2O)C=CC1", "note": "[NADPH]", "values": [{"measurement": "Km", "setting": "[1]", "value": "165 ± 35", "unit": "µM"}]}
{"smiles": "ClC(Cl)Cl", "note": "[Chloroform]", "values": [{"measurement": "methane yield", "setting": "M. ruminantium M1 [2]; 0.1 ml added to 10 ml culture at mid-exponential phase", "value": "similarly reduced methane yield"}, {"measurement": "culture density", "setting": "M. ruminantium M1 [2]; 0.1 ml added to 10 ml culture, compared with PeiR", "value": "decrease in culture density was less"}]}
{"smiles": "C(=NC1CCCCC1)=NC1CCCCC1", "note": "[DCCD]", "values": [{"measurement": "ATP hydrolysis activity, sensitivity to inhibitor", "setting": "[3]", "value": "sensitive"}]}
{"smiles": "CCO", "note": "[ethanol]", "values": [{"measurement": "growth", "setting": "M. ruminantium M1 [4]; 20 mM, M1 grown on H2", "value": "some inhibition of growth"}, {"measurement": "culture density (OD600 nm)", "setting": "M. ruminantium M1 [4]; 5 or 10 mM", "value": "increase in culture density"}, {"measurement": "growth", "setting": "M. ruminantium M1 [4]; no H2 added", "value": "No growth occurred"}, {"measurement": "methane formation", "setting": "M. ruminantium M1 [4]; no H2 added", "value": "no methane was formed"}]}
{"smiles": "N=C(N)NC(=O)c1nc(Cl)c(N)nc1N", "note": "[amiloride]", "values": [{"measurement": "ATP hydrolysis activity, sensitivity to inhibitor", "setting": "[3]", "value": "sensitive"}]}
{"smiles": "CC(C)(CO[P@@](=O)(O)O[P@@](=O)(O)OC[C@H]1O[C@@H](n2cnc3c(N)ncnc32)[C@H](O)[C@@H]1OP(=O)(O)O)[C@@H](O)C(=O)NCCC(=O)NCCSC(=O)C[C@@](C)(O)CC(=O)O", "note": "[HMG-CoA]", "values": [{"measurement": "Km", "setting": "[1]", "value": "12.4 ± 1.83", "unit": "µM"}]}
{"smiles": "CCC[CH2][Sn]([CH2]CCC)[CH2]CCC", "note": "[TBT, tributylin]", "values": [{"measurement": "ATP hydrolysis activity, sensitivity to inhibitor", "setting": "[3]", "value": "sensitive"}]}
{"smiles": "CC[C@H](C)C(=O)O[C@H]1C[C@@H](C)C=C2C=C[C@H](C)[C@H](CC[C@@H]3C[C@@H](O)CC(=O)O3)[C@H]21", "note": "[lovastatin, reference compound]", "values": [{"measurement": "Ki", "setting": "[1]", "value": "8.5 ± 1.1", "unit": "µM"}]}
{"smiles": "CC(C)O", "note": "[isopropanol]", "values": [{"measurement": "stimulation of growth", "setting": "M. ruminantium M1 [4]; 5 to 20 mM, M1 grown on H2", "value": "no stimulation"}, {"measurement": "growth", "setting": "M. ruminantium M1 [4]; no H2 added", "value": "No growth occurred"}, {"measurement": "methane formation", "setting": "M. ruminantium M1 [4]; no H2 added", "value": "no methane was formed"}]}
{"smiles": "CCC(C)(C)C(=O)O[C@H]1C[C@@H](C)C=C2C=C[C@H](C)[C@H](CC[C@@H]3C[C@@H](O)CC(=O)O3)[C@H]21", "note": "[simvastatin, reference compound]", "values": [{"measurement": "Ki", "setting": "[1]", "value": "3.7 ± 0.65", "unit": "µM"}]}
{"smiles": "CO", "note": "[methanol]", "values": [{"measurement": "culture density (OD600 nm)", "setting": "M. ruminantium M1 [4]; 20 mM", "value": "increase in culture density"}, {"measurement": "growth", "setting": "M. ruminantium M1 [4]; no H2 added", "value": "No growth occurred"}, {"measurement": "methane formation", "setting": "M. ruminantium M1 [4]; no H2 added", "value": "no methane was formed"}]}
